A word on the IC50: it is the concentration needed to halve the response being measured.

Counter-ions that a name gives are not always drawn.

Chain of HSET full length protein (Q9BW19 whole entry): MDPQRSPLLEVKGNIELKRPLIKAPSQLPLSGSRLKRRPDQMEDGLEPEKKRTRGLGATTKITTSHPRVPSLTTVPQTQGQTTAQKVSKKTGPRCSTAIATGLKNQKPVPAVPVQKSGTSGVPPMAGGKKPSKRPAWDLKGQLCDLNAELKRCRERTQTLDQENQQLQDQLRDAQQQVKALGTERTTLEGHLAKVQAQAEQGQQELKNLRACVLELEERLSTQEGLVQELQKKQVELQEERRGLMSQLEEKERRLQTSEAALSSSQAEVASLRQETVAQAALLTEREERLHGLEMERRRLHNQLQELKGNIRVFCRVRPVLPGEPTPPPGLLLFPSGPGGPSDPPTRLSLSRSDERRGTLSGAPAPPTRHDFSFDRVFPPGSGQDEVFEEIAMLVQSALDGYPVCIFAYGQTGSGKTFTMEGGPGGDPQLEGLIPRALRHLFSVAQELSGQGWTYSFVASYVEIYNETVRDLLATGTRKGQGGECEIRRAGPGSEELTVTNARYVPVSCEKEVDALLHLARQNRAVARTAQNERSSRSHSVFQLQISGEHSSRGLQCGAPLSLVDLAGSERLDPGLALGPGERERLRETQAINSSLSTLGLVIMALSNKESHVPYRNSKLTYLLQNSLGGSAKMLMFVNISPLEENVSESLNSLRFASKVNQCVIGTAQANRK

The assay deals with HSET full length protein (Homo sapiens (Human), UniProt Q9BW19). Nature of the assay: HSET ADP-Glo Assay S - 3 μM ATP. It is filed as biochemical. Conditions: 5 nM HSET, 70 μg/mL microtubule, 80 min at rt, read-out: COMBINED HSET ADP GLO IC50. Here is the method:
Example 281: Testing compounds of the present invention for inhibitory activities against HSET—HSET ADP-Glo Assay S—3 μM ATP
Reagents: (+4° C. Storage) • Paclitaxel Prod.No.TXD.01 2 mM in DMSO (from Universal Biologicals Cambridge). • Tubulin Protein (Pre-formed Microtubules): Bovine Brain Prod.No.MT001-XL Lot.025 10 mg/mL (from Universal Biologicals Cambridge).
Reagents: (−80° C. Storage) • MT001-XL—Tubulin Protein (Pre-formed Microtubules): Bovine Brain—reconstituted in buffer—15 mM PIPES pH7, 1 mM MgCl2, 20 μM paclitaxel (aliquots at 10 mg/mL) from Universal Biologicals Cambridge. • HSET full length protein—Current batch is FL HSET Prep1 (SEQ-000096_002-01_01) • Buffer is 20 mM Hepes pH 7.5, 200 mM NaCl, 2 mM TCEP, 5% glycerol (5 μL aliquots at 10.2 μM)
Reagents: (−20° C. Storage) • ADP-Glo Kinase Assay kit (Promega Prod.No.V9102) 10,000 assay points • ADP-Glo reagent (50 mL), Kinase Detection Reagent (100 mL), and Ultrapure ATP (10 mM) aliquoted
Buffer Stocks (filtered and stored at rt for up to 1 month) • HEPES acid, 4-(2-Hydroxyethyl)piperazine-1-ethanesulfonic acid MW:238, 238.3 mg/mL=1 M • 7149 mg/30 mL=1M (pH to 6.8 with 5 M NaOH) • PIPES, 1,4-Piperazinediethanesulfonic acid MW: 302.4, 30.24 mg/mL=100 mM; 907.2 mg/30 mL=100 mM (pH to 7 with 5 M NaOH, white cloudy suspension until the pH changes) • EGTA, Ethylene glycol-bis(2-aminoethylether)-N,N,N′,N′-tetraacetic acid MW: 380.35, 38.035 mg/mL=100 mM • 1901.75 mg/50 mL=100 mM (pH to ˜7 with 5 M NaOH)—takes a long time to get into solution and for pH to stabilize • Triton-X-100, MW: 625, 62.5 mg/mL=100 mM (6.25% w/v) (viscous, pipette Triton X-100 with a Gilson using a trimmed pipette tip)
ECHO Protocol • Create an ECHO intermediate plate by adding 24.5 μL DMSO to columns 1 & 2, and 40 μL DMSO to columns 23 & 24 of an ECHO 384PP plate • Add 100 nL of compound/DMSO per well in 384-well Proxi-Plate Plus (white) —Perkin Elmer Cat #6008289 using ECHO dose response protocol 100 nL normal to proxi_8pt_200 uM.
Assay buffer (Keep on ice): HEPES pH 6.8, MgCl2, EGTA, Triton X-100, DTT, HPLC H2O Microtubule Working Solution (3.2): • 1 ml PM buffer: PIPES pH 7.0, MgCl2, HPLC H2O, Paclitaxel, mix well, store at rt • Then add 26.4 μL of 10 mg/ml microtubules to 724 μL of the above PM buffer to make 750 μL of microtubule working solution @350 μg/mL microtubules (store at rt)
Stock HSET enzyme solution (3.1)—keep on ice • Add 1.33 μL 10.2 μM HSET Prepi (SEQ-000096_002-01_01) to 1358 μL assay buffer to make a 10 nM stock for a 5 nM final assay concentration (1/1020 dilution).
HSET/Microtubule working solution (3.3) • Mix solutions 3.1 and 3.2 in the ratio of 2.5:1 (1214.3 μL 3.1+485.7 μL 3.2) keep at rt for 15 min • 3.2 is diluted 3.5-fold, 3.1 is diluted 1.4-fold BLANK solution is 357 μL 2XAB+143 μL microtubule working solution 3.2. (Same proportions as HSET/Microtubule working solution (3.3))
ATP Working solution is 1 μL 10 mM UltraPure ATP (Promega kit)+999 μL ddH20 gives 10 μM ATP for a 3 μM final assay concentration, stored on ice.
Assay procedure in PROXIPLATE 384 PLUS WHITE (Perkin Elmer) plates (Remove 2.4 mL ADP Glo and 4.5 mL Kinase detection reagent from freezer to warm up to rt) • Add 3.5 μL BLANK solution to assay plate (column 12) • Add 3.5 μL HSET/Microtubule solution (3.3) (columns 1-11 & 13-24) • Centrifuge at 1000 rpm for 1 min • (pre-incubate enzyme and compound for 10 min)
Add 1.5 μL of 10 μM ATP to start reaction gives a final [HSET] of 5 nM, [ATP] of 3 μM and [microtubule] of 70 μg/mL, centrifuge at 1000 rpm for 1 min and incubated at rt for 80 min.
After the 80-minute incubation, stop reaction by adding 5 μL ADP-Glo reagent to all wells. Centrifuge for 1 min at 1000 rpm, leave for 40 min at rt.
In the dark/away from direct light, add 10 μL Kinase Detection Reagent (KDR) to all wells, Seal plate with a Topseal (Perkin Elmer Cat #6050185) and centrifuge as above, leave for 40 min at rt covered in foil. […]
Take `CCCOC(=O)c1sc(NC(=O)CCNC(=O)c2cc(C(=O)OC)cc(-c3noc(C)n3)c2)nc1C` [Example 44, Propyl 2-(3-(3-(methoxycarbonyl)-5-(5-methyl-1,2,4-oxadiazol-3-yl)benzamido)propanamido)-4-methylthiazole-5-carboxylate]: the IC50 came to 281 nM. As to `CCOC(=O)c1sc(NC(=O)CCNc2nccc3ccc(-c4noc(C)n4)cc23)nc1C` [Example 45, Ethyl 4-methyl-2-[3-[[7-(5-methyl-1,2,4-oxadiazol-3-yl)-1-isoquinolyl]amino]propanoylamino]thiazole-5-carboxylate], the IC50 was 5 nM. With `COC(=O)c1sc(NC(=O)CCNc2nccc3ccc(-c4noc(C)n4)cc23)nc1C` [Example 46, Methyl 4-methyl-2-[3-[[7-(5-methyl-1,2,4-oxadiazol-3-yl)-1-isoquinolyl]amino]propanoylamino]thiazole-5-carboxylate], the IC50 is 37 nM. As to `Cc1nc(-c2ccc3ncnc(NCCC(=O)Nc4nc(C)c(C(C)(C)C)s4)c3c2)no1` [Example 47, N-(5-tert-butyl-4-methyl-thiazol-2-yl)-3-[[6-(5-methyl-1,2,4-oxadiazol-3-yl)quinazolin-4-yl]amino]propanamide formate], the IC50 is 147 nM.

For `Cc1nc(-c2ccc3ncnc(N[C@H]4C[C@@H](C(=O)Nc5nc(C)c(C(=O)OC(C)(C)C)s5)C4)c3c2)no1` [Example 48, tert-Butyl 4-methyl-2-((1 s,3s)-3-((6-(5-methyl-1,2,4-oxadiazol-3-yl)quinazolin-4-yl)amino)cyclobutane-1-carboxamido)thiazole-5-carboxylate], the IC50 was determined as 68 nM. Turning to `Cc1nc(-c2ccc3ncnc(N[C@H]4C[C@@H](C(=O)N(C)c5nc(C)c(C(=O)OC(C)(C)C)s5)C4)c3c2)no1` [Example 49, tert-Butyl 4-methyl-2-((1 s,3s)-N-methyl-3-((6-(5-methyl-1,2,4-oxadiazol-3-yl)quinazolin-4-yl)amino)cyclobutane-1-carboxamido)thiazole-5-carboxylate formate], the IC50 amounted to 59 nM. Next, `Cc1nc(-c2ccc3ccnc(NCCC(=O)Nc4nc(C)c(C5(C(F)(F)F)CC5)s4)c3c2)no1` [Example 52]: 152 nM; `CCCOC(=O)c1sc(NC(=O)CCNc2nccc3ccc(-c4noc(C)n4)cc23)nc1C` [Example 54, Propyl 4-methyl-2-(3-((7-(5-methyl-1,2,4-oxadiazol-3-yl)isoquinolin-1-yl)amino)propanamido)thiazole-5-carboxylate]: 3 nM; `Cc1nc(-c2ccc3ccnc(NCCC(=O)Nc4ncc(C#N)s4)c3c2)no1` [Example 55]: 1130 nM. Consider `Cc1nc(-c2ccc3ccnc(NCCC(=O)Nc4cc(C(F)(F)F)n(C)n4)c3c2)no1` [Example 56, 3-((7-(5-methyl-1,2,4-oxadiazol-3-yl)isoquinolin-1-yl)amino)-N-(1-methyl-5-(trifluoromethyl)-1 H-pyrazol-3-yl)propenamide], for which the IC50 is 1260 nM. For `CCCCCc1cc(NC(=O)CCNc2nccc3ccc(-c4noc(C)n4)cc23)nn1C` [Example 57, 3-((7-(5-methyl-1,2,4-oxadiazol-3-yl)isoquinolin-1-yl)amino)-N-(1-methyl-5-pentyl-1 H-pyrazol-3-yl)propanamide], the IC50 was found to be 166 nM. In the case of `Cc1nnn(-c2cccc(C(=O)NCCC(=O)Nc3nc(C)c(C(C)(C)C)s3)c2)n1` [Example 59, N-(3-((5-(tert-butyl)-4-methylthiazol-2-yl)amino)-3-oxopropyl)-3-(5-methyl-2H-tetrazol-2-yl)benzamide], the IC50 worked out at 278 nM. Next, `CNCCC[C@@H](CC(=O)Nc1nc(C)c(C(C)(C)C)s1)NC(=O)c1cccc(-n2nnc(C)n2)c1` [Example 60, (S)-N-(1-((5-(tert-butyl)-4-methylthiazol-2-yl)amino)-6-(methylamino)-1-oxohexan-3-yl)-3-(5-methyl-2H-tetrazol-2-yl)benzamide]: 54 nM; `CCOC(=O)c1cnc(NC(=O)CCNC(=O)c2cccc(-c3noc(C)n3)c2)s1` [Example 61, Ethyl 2-(3-(3-(5-methyl-1,2,4-oxadiazol-3-yl)benzamido)propanamido)-thiazole-5-carboxylate]: 819 nM.

Consider `COC(=O)c1sc(NC(=O)CCNC(=O)c2cccc(-c3noc(C)n3)c2)nc1C` [Example 62, Methyl 4-methyl-2-(3-(3-(5-methyl-1,2,4-oxadiazol-3-yl)benzamido)propanamido)thiazole-5-carboxylate], for which the IC50 is 1210 nM. Next, `CCCOC(=O)c1sc(NC(=O)CCNC(=O)c2cccc(-c3noc(C)n3)c2)nc1C` [Example 63, Propyl 4-methyl-2-(3-(3-(5-methyl-1,2,4-oxadiazol-3-yl)benzamido)propanamido)thiazole-5-carboxylate]: 11 nM. Consider `CCCCc1sc(NC(=O)CCNC(=O)c2cccc(-c3noc(C)n3)c2)nc1C` [Example 64, N-(3-((5-butyl-4-methylthiazol-2-yl)amino)-3-oxopropyl)-3-(5-methyl-1,2,4-oxadiazol-3-yl)benzamide], for which the IC50 stood at 348 nM. Take `CCOC(=O)c1sc(NC(=O)CC(C)(C)NC(=O)c2cccc(-c3noc(C)n3)c2)nc1C` [Example 65, Ethyl 4-methyl-2-(3-methyl-3-(3-(5-methyl-1,2,4-oxadiazol-3-yl)benzamido)butanamido)thiazole-5-carboxylate]: the IC50 came out at 4100 nM. Next, `Cc1nc(-c2cccc(C(=O)NCCC(=O)Nc3nc(C)c(C(=O)OC(C)C)s3)c2)no1` [Example 66, Isopropyl 4-methyl-2-(3-(3-(5-methyl-1,2,4-oxadiazol-3-yl)benzamido)propanamido)thiazole-5-carboxylate]: 40 nM. Turning to `COCCOC(=O)c1sc(NC(=O)CCNC(=O)c2cccc(-c3noc(C)n3)c2)nc1C` [Example 67, 2-Methoxyethyl 4-methyl-2-(3-(3-(5-methyl-1,2,4-oxadiazol-3-yl)benzamido)propanamido)thiazole-5-carboxylate], the concentration for half-maximal inhibition (IC50) was found to be 419 nM. `Cc1nc(-c2cccc(C(=O)NCCC(=O)Nc3nc(C)c(C(=O)OCC(C)C)s3)c2)no1` [Example 68, Isobutyl 4-methyl-2-(3-(3-(5-methyl-1,2,4-oxadiazol-3-yl)benzamido)propanamido)thiazole-5-carboxylate]: the IC50 stood at 33 nM.

For `COCCCCOC(=O)c1sc(NC(=O)CCNC(=O)c2cccc(-c3noc(C)n3)c2)nc1C` [Example 69, 4-Methoxybutyl 4-methyl-2-(3-(3-(5-methyl-1,2,4-oxadiazol-3-yl)benzamido)propanamido)thiazole-5-carboxylate], the IC50 came out at 50 nM.

(Values after patent US20250084074A1, “SUBSTITUTED HETEROCYCLES AS HSET INHIBITORS” (MERCK PATENT GMBH, priority 2022, published 2025).)
